Reference: patent US9701670B2, “Pyrazolyl-ureas as kinase inhibitors” (RESPIVERT LIMITED, priority 2013, dated 2017)

Columns and labels:
[1] = biological target: p38 MAPKα isoform (MAPK14) (Homo sapiens (Human), UniProt Q16539); assay: p38 MAPKα enzyme inhibition (FRET, Z-LYTE), Method 1; format: biochemical; conditions: Method 1 (Table 4a1)
Method: The enzyme inhibitory activities of compounds disclosed herein are determined by FRET using synthetic peptides labelled with both donor and acceptor fluorophores (Z-LYTE, Invitrogen Ltd., Paisley, UK).
The inhibitory activities of test compounds against the p38 MAPKα isoform (MAPK14: Invitrogen), are evaluated indirectly by determining the level of activation/phosphorylation of the down-stream molecule, MAPKAP-K2. The p38 MAPKα protein (80 ng/mL, 2.5 μL) is mixed with the test compound (2.5 μL of either 4 μg/mL, 0.4 μg/mL, 0.04 μg/mL or 0.004 μg/mL) for 2 hr at RT. […] The mixture is incubated for 1 hr at RT. Development reagent (protease, 5 μL) is added for 1 hr prior to detection in a fluorescence microplate reader (Varioskan® Flash, ThermoFisher Scientific).
In all cases, the site-specific protease cleaves non-phosphorylated peptide only and eliminates the FRET signal. Phosphorylation levels of each reaction are calculated using the ratio of coumarin emission (donor) over fluorescein emission (acceptor), for which high ratios indicate high phosphorylation and low ratios indicate low phosphorylation levels.

[2] = tested on: Differentiated U937 cells; assay: (l) Cell viability: MTT assay; format: cell-based, human; conditions: 1 μg/mL
Method: Differentiated U937 cells are pre-incubated with each test compound (final concentration 1 μg/mL or 10 μg/mL in 200 μL media indicated below) under two protocols: the first for 4 hr in 5% FCS RPMI1640 media and the second in 10% FCS RPMI1640 media for 24 h. The supernatant is replaced with new media (200 μL) and MTT stock solution (10 μL, 5 mg/mL) is added to each well. After incubation for 1 hr the media are removed, DMSO (200 μL) is added to each well and the plates are shaken lightly for 1 hr prior to reading the absorbance at 550 nm. The percentage loss of cell viability is calculated for each well relative to vehicle (0.5% DMSO) treatment. Consequently an apparent increase in cell viability for drug treatment relative to vehicle is tabulated as a negative percentage.

p38 MAPKα isoform (MAPK14), sequence (Q16539 whole entry, canonical isoform): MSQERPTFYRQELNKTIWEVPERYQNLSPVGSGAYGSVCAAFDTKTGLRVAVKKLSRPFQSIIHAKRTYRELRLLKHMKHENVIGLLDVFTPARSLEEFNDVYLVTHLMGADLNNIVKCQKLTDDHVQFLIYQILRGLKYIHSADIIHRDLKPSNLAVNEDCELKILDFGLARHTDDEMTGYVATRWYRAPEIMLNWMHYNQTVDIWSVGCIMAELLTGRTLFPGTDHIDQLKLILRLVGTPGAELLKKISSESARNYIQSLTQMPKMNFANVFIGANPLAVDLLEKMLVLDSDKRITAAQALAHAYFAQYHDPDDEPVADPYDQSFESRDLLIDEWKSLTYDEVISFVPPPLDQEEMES

IC50 [1] [nM] | SMILES | Cell viability at time point in d-U937 cells 4 h [2] | Cell viability at time point in d-U937 cells 24 h [2]
27 | Cc1ccc(-n2nc(C(C)(C)C)cc2NC(=O)Nc2ccc(Oc3ccnc(Nc4cccc(C(N)=O)c4)n3)c3ccccc23)cc1 [Example 2, 3-((4-((4-(3-(3-(tert-Butyl)-1-(p-tolyl)-1H-pyrazol-5-yl)ureido)naphthalen-1-yl)oxy)pyrimidin-2-yl)amino)benzamide] | −ve (−ve and +ve indicate that the value is below and above respectively, the no significant effect threshold, defined as 30% inhibition at 1 μg/mL at the time point indicated.) | −ve (−ve and +ve indicate that the value is below and above respectively, the no significant effect threshold, defined as 30% inhibition at 1 μg/mL at the time point indicated.)
7 | Cc1ccc(-n2nc(C(C)(C)C)cc2NC(=O)Nc2ccc(Oc3ccnc(Nc4cccc(C(=O)NCCN5CCOCC5)c4)n3)c3ccccc23)cc1 [Example 3, 3-((4-((4-(3-(3-(tert-Butyl)-1-(p-tolyl)-1H-pyrazol-5-yl)ureido)naphthalen-1-yl)oxy)pyrimidin-2-yl)amino)-N-(2-morpholinoethyl)benzamide] | −ve (−ve and +ve indicate that the value is below and above respectively, the no significant effect threshold, defined as 30% inhibition at 1 μg/mL at the time point indicated.) | −ve (−ve and +ve indicate that the value is below and above respectively, the no significant effect threshold, defined as 30% inhibition at 1 μg/mL at the time point indicated.)
– | COc1ccc(-n2nc(C(C)C)cc2NC(=O)Nc2ccc(Oc3ccnc(Nc4cc(OC)cc(C(=O)NCCN(C)C)c4)n3)c3ccccc23)cc1 [Example 6, N-(2-(Dimethylamino)ethyl)-3-((4-((4-(3-(3-isopropyl-1-(4-methoxyphenyl)-1H-pyrazol-5-yl)ureido)naphthalen-1-yl)oxy)pyrimidin-2-yl)amino)-5-methoxy benzamide] | −ve (−ve and +ve indicate that the value is below and above respectively, the no significant effect threshold, defined as 30% inhibition at 1 μg/mL at the time point indicated.) | −ve (−ve and +ve indicate that the value is below and above respectively, the no significant effect threshold, defined as 30% inhibition at 1 μg/mL at the time point indicated.)
– | Cc1ccc(-n2nc(C(C)C)cc2NC(=O)Nc2ccc(Oc3ccnc(Nc4cc(C(=O)NCCN5CCOCC5)cc(C(F)(F)F)c4)n3)c3ccccc23)cc1 [Example 7, 3-((4-((4-(3-(3-isopropyl-1-(p-tolyl)-1H-pyrazol-5-yl)ureido)naphthalen-1-yl)oxy)pyrimidin-2-yl)amino)-N-(2-morpholinoethyl)-5-(trifluoromethyl)benzamide] | −ve (−ve and +ve indicate that the value is below and above respectively, the no significant effect threshold, defined as 30% inhibition at 1 μg/mL at the time point indicated.) | −ve (−ve and +ve indicate that the value is below and above respectively, the no significant effect threshold, defined as 30% inhibition at 1 μg/mL at the time point indicated.)
– | COc1ccc(Nc2nccc(Oc3ccc(NC(=O)Nc4cc(C(C)(C)C)nn4-c4ccc(C)cc4)c4ccccc34)n2)cc1C(=O)NCCN1CCOCC1 [Example 13, 5-((4-((4-(3-(3-(tert-Butyl)-1-(p-tolyl)-1H-pyrazol-5-yl)ureido)naphthalen-1-yl)oxy)pyrimidin-2-yl)amino)-2-methoxy-N-(2-morpholinoethyl)benzamide] | −ve (−ve and +ve indicate that the value is below and above respectively, the no significant effect threshold, defined as 30% inhibition at 1 μg/mL at the time point indicated.) | −ve (−ve and +ve indicate that the value is below and above respectively, the no significant effect threshold, defined as 30% inhibition at 1 μg/mL at the time point indicated.)
– | Cc1ccc(-n2nc(C(C)C)cc2NC(=O)Nc2ccc(Oc3ccnc(Nc4cccc(C(=O)NCCN5CCOCC5)c4)n3)c3ccccc23)cc1 [Example 19, 3-((4-((4-(3-(3-isopropyl-1-(p-tolyl)-1H-pyrazol-5-yl)ureido)naphthalen-1-yl)oxy)pyrimidin-2-yl)amino)-N-(2-morpholinoethyl)benzamide] | −ve (−ve and +ve indicate that the value is below and above respectively, the no significant effect threshold, defined as 30% inhibition at 1 μg/mL at the time point indicated.) | −ve (−ve and +ve indicate that the value is below and above respectively, the no significant effect threshold, defined as 30% inhibition at 1 μg/mL at the time point indicated.)
– | COc1ccc(C(=O)NCCN(C)C)cc1Nc1nccc(Oc2ccc(NC(=O)Nc3cc(C(C)(C)C)nn3-c3ccc(C)cc3)c3ccccc23)n1 [Example 29, 3-((4-((4-(3-(3-(tert-butyl)-1-(p-tolyl)-1H-pyrazol-5-yl)ureido)naphthalen-1-yl)oxy)pyrimidin-2-yl)amino)-N-(2-(dimethylamino)ethyl)-4-methoxybenzamide] | −ve (−ve and +ve indicate that the value is below and above respectively, the no significant effect threshold, defined as 30% inhibition at 1 μg/mL at the time point indicated.) | −ve (−ve and +ve indicate that the value is below and above respectively, the no significant effect threshold, defined as 30% inhibition at 1 μg/mL at the time point indicated.)
– | COc1ccc(-n2nc(C(C)C)cc2NC(=O)Nc2ccc(Oc3ccnc(Nc4cc(C)cc(C(=O)NCCN5CCOCC5)c4)n3)c3ccccc23)cc1 [Example 45, 3-((4-((4-(3-(3-isopropyl-1-(4-methoxyphenyl)-1H-pyrazol-5-yl)ureido)naphthalen-1-yl)oxy)pyrimidin-2-yl)amino)-5-methyl-N-(2-morpholinoethyl)benzamide] | −ve (−ve and +ve indicate that the value is below and above respectively, the no significant effect threshold, defined as 30% inhibition at 1 μg/mL at the time point indicated.) | −ve (−ve and +ve indicate that the value is below and above respectively, the no significant effect threshold, defined as 30% inhibition at 1 μg/mL at the time point indicated.)
– | COc1cc(Nc2nccc(Oc3ccc(NC(=O)Nc4cc(C(C)(C)C)nn4-c4ccc(OC)nc4)c4ccccc34)n2)cc(C(=O)NCCN2CCOCC2)c1 [Example 57, 3-((4-((4-(3-(3-(tert-butyl)-1-(6-methoxypyridin-3-yl)-1H-pyrazol-5-yl)ureido)naphthalen-1-yl)oxy)pyrimidin-2-yl)amino)-5-methoxy-N-(2-morpholinoethyl)benzamide] | −ve (−ve and +ve indicate that the value is below and above respectively, the no significant effect threshold, defined as 30% inhibition at 1 μg/mL at the time point indicated.) | −ve (−ve and +ve indicate that the value is below and above respectively, the no significant effect threshold, defined as 30% inhibition at 1 μg/mL at the time point indicated.)
9.6 | COc1ccc(-n2nc(C(C)(C)C)cc2NC(=O)Nc2ccc(Oc3cc(Nc4cc(OC)cc(C(=O)NCCN5CCOCC5)c4)ncn3)c(C)c2C)cc1 [Example 91, 3-((6-(4-(3-(3-(tert-Butyl)-1-(4-methoxyphenyl)-1H-pyrazol-5-yl)ureido)-2,3-dimethylphenoxy)pyrimidin-4-yl)amino)-5-methoxy-N-(2-morpholinoethyl)benzamide] | – | –
